Laboratory results published in patent US20170114329A1, “SCALABLE ORGANOTYPIC MODELS OF TUMOR DORMANCY” (THE REGENTS OF THE UNIVERSITY OF CALIFORNIA, priority 2013, published 2017).
Entries after “also recorded” stand apart in the source; their conditions may differ.

What was measured:
Assay type in all cases: cell-based, human
[1] = tested on: E4-EC microvascular networks; test: Neovascular tip number in microvascular niche cultures; settings: shNotch1 E4-EC vs shCtrl, day 7
Description: (§1) Microvascular niche cultures were generated with modifications to a previously described protocol, described in Evensen, L., et al. Mural cell associated VEGF is required for organotypic vessel formation. PLoS One 4, e5798 (2009), hereby incorporated by reference in its entirety. LFs or MSCs were seeded alone at a density of 5×10^4 cells/well in 96-well culture plates or with mCherry-E4-ECs at a 5:1 ratio to generate lung-like or BoMa-like microvascular niches, respectively. Cells were suspended in EGM-2 at a concentration 5×10^4 cells/100 μl (stroma only) or 6×10^4 cells/100 μl (stroma+ECs). After depositing 100 μl of cellular suspension per well of a 96-well plate, plates were left undisturbed on a flat surface for 20 min to allow even cell seeding prior to incubation.
Network properties were counted manually using the “cell counter” application in ImageJ.
E4ORF1-HUVECs were infected at 5 MOI with custom-made lentiviruses (Sigma) containing shRNA targeting human Notch1 in a pLKO.1-puro-CMV-TagRFP vector. Empty vector was used as a control (shCtrl).

Notch1 = Notch1 knockdown in E4ORF1-HUVEC, immunoblot; settings: normalized to Lamin A/C
Excerpt: E4ORF1-HUVECs were infected at 5 MOI with custom-made lentiviruses (Sigma) containing shRNA targeting human Notch1 in a pLKO.1-puro-CMV-TagRFP vector. Empty vector was used as a control (shCtrl). Sequences for shRNA were as follows:
shNotch1-E4-ECs and shCtrl-E4-ECs were lysed in 2% SDS/PBS. Twenty μg of each lysate was then separated on a Tris-Glycine 4-20% gel. Notch1 was probed with a rabbit polyclonal antibody (AbCam ab27526, 1:500). The blot was stripped and re-probed with a rabbit polyclonal antibody to the nuclear membrane protein Lamin A/C, used here as a loading control (Santa Cruz Biotechnology sc-20681, 1:2000).

T4-2 cells = test: Growth of YFP T4-2 breast cancer cells on lung stroma (LF) cultures; settings: add-back to T4-2 cells plated on lung stroma without ECs; normalized to vehicle condition
Description: as §1
After 7 days, YFP tumor cells were suspended in unsupplemented DMEM/F12 (800 cells/ml). YFP tumor cells were seeded (100 μl/well) after washing cultures thrice with PBS. […]
A macro was written using NIH ImageJ open source software to remove bias from data quantification. […] The total area fraction of the 6×6 tiled image occupied by YFP cells was then calculated. […] For each image, the measured area fraction at day 10 was normalized by the corresponding day 0 value in order to account for any small variations in seeding density from well-to-well.

Substance | number of endothelial tips [1] | endothelial cell Notch1 expression at the protein level (Notch1) | tumor cell growth (normalized tumor cell area fraction) (T4-2 cells)
sh8393: shRNA targeting human Notch1, SEQ ID NO: 1, in pLKO.1-puro-CMV-TagRFP lentiviral vector (CCGGCTTTGTTTCAGGTTCAGTATTCTCGAGAATACTGAACCTGAAACAAAGTTTTT) | significant reduction in the number of endothelial tips | significantly reduced endothelial cell Notch1 expression | –
thrombospondin-1 [TSP-1] | – | – | significant reduction in tumor cell growth; also recorded: sufficient to suppress BCC growth on lung stroma
